According to article PMC12455130, “Multifunctional molecular agent for tau-targeted combinational therapy of Alzheimer’s disease” (The Journal of Biological Chemistry, 2025):
Entries after “also recorded” stand apart in the source; their conditions may differ.

Columns and labels:
[1] = test system: tau-infected SK-N-SH cells; test: Immunofluorescence / ThS staining of intracellular tau aggregation; format: cell-based, human; conditions: 1.5 μM R3 aggregates, 10 μM inhibitor; for fluorescence intensity of ThS against the control group: ImageJ
Experimental: The red fluorescence of antitau antibody (Cy3-AB) staining marked for Pan Tau protein. […] Finally, the fluorescence intensity was quantitatively analyzed via ImageJ (National Institutes of Health).
Figure 8 Confocal laser scanning microscopy images of SK-N-SH cells incubated with R3 aggregates and different inhibitors. 2-(4-Amidinophenyl)-6-indolecarbamidine dihydrochloride (DAPI) for nuclei staining (blue); Thioflavin S (ThS) for aggregated Tau protein (green); Cy3 marked anti-Tau antibody (Cy3-AB) for Pan Tau protein (all conformations of Tau) (red). Concentrations of R3 aggregates and inhibitors are 1.5 μM and 10 μM, respectively. Scale bar represents 25 μm.
Tau-infected pathological model cell lines were constructed by human neuroblastoma SK-N-SH cells using R3 aggregates as inducer, referring our earlier article ([28]). R3 aggregates were obtained from coincubation of 15 μM R3 peptide with 3.8 μM heparin in PBS at 37 °C for 4 h. Then, the solution was diluted to 1.5 μM in the culture medium. SK-N-SH cells were seeded onto 24-well plates (1 × 10^5/well) for 24 h. Then, 10 μM of different compounds (inhibitors) per well was added and incubated for 2 h. After changing the culture medium, these cells were treated with 1.5 μM R3 aggregates for 12 h and then further continued incubation for 12 h.
The samples were successively treated with 4% paraformaldehyde and 0.1% Triton X-100 for 15 min each and washed three times with PBS. Blocked with 5% goat serum for 30 min, the samples were incubated with rabbit anti-Tau antibody (1:200 dilution) at 4 °C for 24 h and washed three times with PBS. Then they were incubated with Cy3-conjugated Donkey Anti-Rabbit IgG (1:1000 dilution) at 37 °C for 1 h and washed three times with PBS. Subsequently, 60 μM ThS was added to stain tau aggregates for 15 min and washed three times with PBS. Finally, cells were stained with 2-(4-amidinophenyl)-6-indolecarbamidine dihydrochloride (0.02%) for 5 min to staining nuclei and washed three times with PBS. The antifade mounting medium was used for cell slides to ensure fluorescence. The fluorescence signals were monitored using a CLSM (Leica TCS SP8).
Fig. S16 Quantitatively analysis of the fluorescence intensity in the Confocal laser scanning microscopy images ([…]) of SK-N-SH cells incubated with R3, heparin and different inhibitors by ImageJ software. Florescence intensity per cell (n = 8), analyzed by ImageJ software.

tau peptide R3 = target: T1, tau peptide R3 (Homo sapiens, UniProt P10636); test: Endogenous (tyrosine) fluorescence quenching of tau peptide R3; format: binding; conditions: for n (binding sites): Hill equation
T1 construct: R3 (^306VQIVYK PVDLSK VTSKCG SLGNIH HKPGGG Q^336) and rabbit anti-tau antibody were purchased from MuJin; purchased MuJin
Experimental: The affinity of the synthetic compounds toward tau peptide was evaluated by endogenous fluorescence quenching experiment. The N-galloyl-substituted azacrown (ligand) can quench the endogenous fluorescence of tyrosine residues (306–310, VQIVY) on R3 peptide chain (receptor), if there exists a definite interaction between the ligand and the receptor. With titration of 4GA or 2GA (ligands) into the solution of tau peptide R3 (receptors), the endogenous fluorescence (at 310 nm) of tyrosine residues on R3 peptide chain was gradually quenched (data provided in ESI, Fig. S11). The data were then fitted by the Stern−Volmer formula to give the quenching constants (Kb) (Fig. S12). The quenching constants (Kb) and binding sites (n) of 4GA or 2GA to R3 peptide in the temperatures 25 °C and 37 °C are presented in Table 1.
The structural changes of R3 protein upon binding to 4GA/2GA/GA was documented by fluorescence spectroscopy. Briefly, various concentrations of 4GA/2GA/GA (0, 5, 10, 15, 20, 30, 40, 60, or 80 μM) were added to the 15 μM R3 protein in 50 mM Tris–HCl buffer (pH 7.4) in a 10-mm quartz cuvette. The measurement was carried out by Hitachi F-7000 equipped with a circulating water bath at 25 and 37 °C. The fluorescence spectra of R3 protein were documented from 290 nm to 380 nm with 275 nm excitation. The widths of excitation and emission slit were set at 5 and 10 nm, respectively.
The Stern–Volmer (Formula 4.1) was used to determine the quenching mechanism, either static or dynamic quenching:(4.1) F0/F=1+KSV[Q] where F0 and F are the fluorescence intensity without and with quencher, [Q] means the concentration of quencher, and Ksv is the Stern–Volmer constant.
Furthermore, the binding constant (Kb) and number of the binding sites (n) of quencher on R3 protein could be calculated by Hill (Equation 4.2):(4.2) log[F0−F/F]=logKb+nlog[Q]
The tyrosine fluorescence quenching experiment was carried out to determine the binding ability between inhibitors and R3 protein. […] Furthermore, this experiment is reasonable given the relatively weak fluorescence intensity of 4GA, 2GA, and GA (Figure S10). With titration of inhibitors into the solution of R3 protein, the fluorescence of tyrosine residues was gradually quenched in two temperatures of 25°C and 37°C, implying that 4GA or 2GA can interact with R3.
Fluorescence quenching usually proceeds through either dynamic quenching or static quenching. Dynamic quenching refers to the contact process between excited fluorophore and quencher, while static quenching refers to the formation of fluorophore-quencher complexes. A series of data processing about the fluorescence change of tyrosine residues at 25°C and 37°C was utilized to figure out the binding constant. Compared to the standard Stern-Volmer curves, a minor positive deviation from linearity was observed by plotting F0/F versus concentration, indicating a mixture of dynamic and static patterns (Figure S11). Furthermore, the Hill equation was used to calculate the quenching constant and binding sites of inhibitors on R3 protein (Figure S12).

T1 sequence (P10636 623-653 limits assumed): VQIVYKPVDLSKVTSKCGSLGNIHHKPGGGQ

SMILES | intracellular tau aggregation (ThS green fluorescence, CLSM) [1] | binding ability / interaction with R3 (tau peptide R3; 25 °C and 37 °C) | n (binding sites) (tau peptide R3; 25 °C) | n (binding sites) (tau peptide R3; 37 °C) | fluorescence intensity of ThS against the control group [1]
CN1CCN(C)CCN(C)CCN(C)CC1 [4ME, 1,4,7,10-tetramethyl-1,4,7,10-tetraazacyclododecane, reference compound] | slight inhibitory efficiency | – | – | – | –
O=C(O)c1cc(O)c(O)c(O)c1 [GA, gallic acid, reference compound] | slight inhibitory efficiency | no significant interaction between GA and R3; also recorded: negligible binding ability | – | – | –
CN1CCN(C(=O)c2cc(O)c(O)c(O)c2)CCN(C)CCN(C(=O)c2cc(O)c(O)c(O)c2)CC1 [2GA, (4,10-dimethyl-1,4,7,10-tetraazacyclododecane-1,7-diyl)bis((3,4,5-trihydroxyphenyl)methanone)] | the green fluorescence disappeared | – | 1.14 ± 0.05 | 1.32 ± 0.04 | 4.6%
O=C(c1cc(O)c(O)c(O)c1)N1CCN(C(=O)c2cc(O)c(O)c(O)c2)CCN(C(=O)c2cc(O)c(O)c(O)c2)CCN(C(=O)c2cc(O)c(O)c(O)c2)CC1 [4GA, (1,4,7,10-tetraazacyclododecane-1,4,7,10-tetrayl)tetrakis((3,4,5-trihydroxyphenyl)methanone)] | the green fluorescence disappeared | – | 1.33 ± 0.05 | 1.54 ± 0.07 | 3.3%
